According to publication PMC6372683, “Mechanism of the natural product moracin-O derived MO-460 and its targeting protein hnRNPA2B1 on HIF-1α inhibition” (Experimental & Molecular Medicine, 2019):
Entries after “also recorded” stand apart in the source; their conditions may differ.

How the values were obtained:
[1] = target: T1, hnRNPA2B1 GRD (202–353 aa) (Homo sapiens, UniProt P22626); test: BLItz association-dissociation binding assay, GRD of hnRNPA2B1; conditions: 6XHis tagged protein, Con. 5 uM, biotin-MO-460 on streptavidin tip
T1 construct: 202–353 aa; His; made in house; host or cells: bacteria (pET28A vector)
Method: The binding capacity of hnRNPA2B1 to Biotin-MO-460 was also analyzed using a BLItz™ (Fortebio, Inc., CA, US) instrument with a streptavidin-coated biosensor tip (Pall, USA). The streptavidin-coated tips were pre-wetted for 10 min in an incubation buffer (10 mM HEPES pH 7.4, 1% BSA and 0.05% Tween 20). The streptavidin-coated tips were immobilized with 1 μM Biotin-MO-460 in incubation buffer (10 mM HEPES pH 7.4, 1% BSA and 0.05% Tween 20) for 5 min. […] The concentrations were then incubated with HEPES for another 3 min to desorb the protein. Analysis of the accurate and precise kinetic constants was performed by the BLItz data analysis software (BLItz Pro 1.1).

HIF-1α in Hep3B cells = test: HIF-1α protein accumulation under CoCl2 mimetic hypoxia (immunostaining and western blotting); type: cell-based, human
HIF-1α = HIF-1α accumulation under real hypoxia (1% oxygen), western blotting and immunostaining; type: cell-based, human; conditions: 24 h
Method: For immunofluorescence observation, Hep3B cells were seeded on microplates at 2 or 5 × 10^4 cells/mL and cultured for 18 h. […] The medium in the microplate wells was then removed and cells were fixed with 3.7% formaldehyde in PBS for 15 min then permeabilized for 5 min with 100% cold MeOH. Cells were washed with PBS containing 1% bovine serum albumin (PBS-1% BSA), and then treated with 5% bovine serum albumin for 20 min. The cells in each well were treated with HIF-1α antibody in PBS-0.1% BSA then placed in a humidified atmosphere of 5% CO2 at 37 °C and incubated for 60 min. After being washed with PBS-0.1% BSA, treated wells of HIF-1α were incubated with Alexa Fluor 488-conjugated mouse anti-IgG antibody in PBS-0.1% BSA then incubated at room temperature for 60 min. After being washed with PBS-0.1% BSA, the dish wells were overlaid with Hoechst 33342 for 5 min at room temperature and then washed with PBS-0.1% BSA. Fluorescence was photographed with an inverted ECLIPSE Ti-U microscope (Nikon Corporation, Japan).

[2] = test system: HIF-1α translation in presence of hnRNPA2B1; test: In vitro transcription/translation assay of HIF-1α; type: biochemical, human; conditions: purified hnRNPA2B1 protein added
Method: HIF-1α proteins were synthesized using in vitro transcription/translation systems (Promega, Madison, WI), the protocol was followed the manufacturer’s instructions. In brief, mixtures containing reaction components were incubated at 30 °C for 60 min, and then analyzed by Western blotting using HIF-1α. The template was used HIF-1α plasmid DNA containing untranslated region (Korea human gene bank, Daejeon, Rep. of Korea), and full-length recombinant hnRNPA2B1 and MO-460 were added to the mixture.

hnRNPA2B1 = target: T2, hnRNPA2B1 (Homo sapiens, UniProt P22626); test: In vitro pull-down assay of purified recombinant hnRNPA2B1; type: binding; conditions: excess amount of MO-460 added
T2 construct: made in house; host or cells: HEK293T
Method: HEK293T cells were cultured in DMEM medium supplemented with 10% fetal bovine serum in a humidified atmosphere containing 5% CO2. The cells were transfected with C-terminal Myc/DDK-tagged hnRNPA2B1 constructs. Recombinant protein was captured with an anti-DDK affinity column followed by conventional chromatography. A streptavidin-conjugated biotin linker was used as a control or streptavidin-conjugated biotinylated MO-460 were treated with 5% bovine serum albumin in PBS for 1 h at room temperature. Myc/DDK-tagged hnRNPA2B1 protein (1 ug) was incubated with streptavidin-conjugated biotin linker (1,200 μM) or streptavidin-conjugated biotinylated MO-460 (400 μM) in the presence or absence of MO-460 (400 μg) in binding buffer for 6 h at 4 °C. The reacted beads were washed with binding buffer [10 mM HEPES pH 7.9, 10 mM KCl, 0.1 mM EGTA, 0.1 mM EDTA, 0.5 mM PMSF, 0.025% 2-mercaptoethanol, and protease inhibitor cocktail] and the bound proteins eluted with SDS/PAGE sample buffer. Proteins were resolved by SDS/PAGE and detected by silver staining.

Hep3B cells = test: Stress granule formation (immunostaining of hnRNPA2B1 and TIA-1); type: cell-based, human; conditions: mimetic hypoxia

T2 sequence (P22626 whole entry): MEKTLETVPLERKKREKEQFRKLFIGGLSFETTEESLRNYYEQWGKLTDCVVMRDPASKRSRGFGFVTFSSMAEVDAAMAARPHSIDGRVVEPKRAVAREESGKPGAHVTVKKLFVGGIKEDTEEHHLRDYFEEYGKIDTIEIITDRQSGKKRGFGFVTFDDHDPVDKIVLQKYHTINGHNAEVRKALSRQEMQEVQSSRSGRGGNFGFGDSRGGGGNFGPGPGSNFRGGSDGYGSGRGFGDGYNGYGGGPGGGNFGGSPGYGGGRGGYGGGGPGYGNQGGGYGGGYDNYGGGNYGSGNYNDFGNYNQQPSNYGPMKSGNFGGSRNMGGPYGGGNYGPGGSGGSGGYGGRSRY
T1 sequence (P22626 202-353): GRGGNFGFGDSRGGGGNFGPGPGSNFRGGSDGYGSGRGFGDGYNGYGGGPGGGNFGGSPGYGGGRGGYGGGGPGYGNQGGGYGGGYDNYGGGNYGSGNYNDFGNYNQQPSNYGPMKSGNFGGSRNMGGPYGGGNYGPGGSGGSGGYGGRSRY

Kd [1]: 6.6 µM | interaction between hnRNPA2B1 and biotin-MO-460 on competition (hnRNPA2B1): eliminated
SMILES: CC(C)(O)[C@H]1Cc2cc3cc(-c4ccc(O)cc4)oc3cc2O1 [MO-460, (R)-4-[6-(1-Hydroxy-1-methylethyl)-5,6-dihydro-benzo[1,2-b;5,4-b’]difuran-2-yl]-phenol]
accumulation of HIF-1α protein (HIF-1α in Hep3B cells; CoCl2 mimetic hypoxia, 24 h): inhibits the accumulation of HIF-1α protein; also recorded: reduced the level of HIF-1α protein in a concentration-dependent manner; also recorded: completely eliminated the accumulation of HIF-1α | amount of hnRNPA2B1 (HIF-1α in Hep3B cells; western blot): no effect | HIF-1α accumulation (HIF-1α): reduction in HIF-1α accumulation | effect on hnRNPA2B1-enhanced HIF-1α translation [2]: attenuated this effect | stress granule formation, co-localization with TIA-1 (Hep3B cells): causes formation of cytoplasmic dots in hnRNPA2B1
